Measured values as given in patent publication US20260109721A1, “IONIZABLE CATIONIC LIPIDS INCORPORATING SILICON: SYNTHESIS AND LNP FORMULATION” (priority 2023, published 2026).

Test system: HepG2 cell line
Assay: In vitro toxicity study on HepG2 cell line (resazurin, viability and IC50)
Format: cell-based, human
Settings: resazurin; for Viability (%) at different lipid concentrations, mean: HepG2 cells, 48 h post-treatment, relative to ethanol vehicle controls; for IC50: Homo sapiens, lipid toxicity, HepG2, 48 h post-treatment, 6.25-800 μM, read-out: IC50 value, μM (on HepG2 cell)
Procedure: The synthesized lipids were tested in term of in vitro transfection efficacy and toxicity on HeLa cells. In order to perform the mentioned biological tests, appropriate LNPs had to be formulated from the synthesized lipids. The formulation technique was different in Method A and B. The particle size, polydispersity index (PDI) and zeta potential of resulting LNPs were determined by means of Dynamic Light Scattering technique (DLS). Prior to biological testing the encapsulation efficiency (EE) of the loaded LNPs was determined by using RiboGreen RNA assay. In case of Method A Luc mRNA while in case of Method B GFP mRNA was transfected into the cells. In parallel with the transfection experiments, toxicity of the investigated LNPs was determined, in case of Method A resazurin assay while in case of Method B MTT assay was used. Additionally, the toxicity of the lipids was investigated on HepG2 cells and IC50 values were determined.
HepG2 cell line (human hepatocellular carcinoma) were maintained in DMEM medium supplemented with 10% FBS. Cell toxicity measurements were carried out in 384-well microtiter plates with 1000 cells seeded in each well. Test measurements were carried out in triplicate, and control measurements in quadruplicate. After an overnight incubation, the cells were treated with an increasing concentration of the test compounds (6.25, 12.5, 25, 50, 100, 200, 400, 800 μM). […] 48 h post-treatment, following visual inspection under an inverted microscope, cell viability was measured by resazurin assay. Viability of treated cells was calculated relative to that of ethanol vehicle controls. Concentration response curves (CRCs) were obtained and corresponding IC50 values were calculated where applicable and are shown in Table 9.
Resazurin reagent (Sigma-Aldrich) was dissolved in PBS (pH 7.4) at 0.15 mg/ml concentration, 0.22 μm filtered and aliquoted at −20° C., 10 μl resazurin stock solution was added to wells. After 5 hours incubation at 37° C. under 5% CO2 fluorescence (530 nm excitation/580 nm emission) was recorded on a multimode microplate reader.

SMILES	Viability (%) at different lipid concentrations, mean (6.25 μM lipid) [%]	Viability (%) at different lipid concentrations, mean (12.5 μM lipid) [%]	Viability (%) at different lipid concentrations, mean (25 μM lipid) [%]	Viability (%) at different lipid concentrations, mean (50 μM lipid) [%]	Viability (%) at different lipid concentrations, mean (100 μM lipid) [%]	Viability (%) at different lipid concentrations, mean (200 μM lipid) [%]	Viability (%) at different lipid concentrations, mean (400 μM lipid) [%]	Viability (%) at different lipid concentrations, mean (800 μM lipid) [%]	IC50 [µM]
CCCCC/C=C\C/C=C\CCCCCCCCOC(CCCCCCC/C=C\C/C=C\CCCCC)O[Si](C)(C)OCCCCCCN(CCCO)CCCO (stereo not shown) [Example 61, (24Z,27Z)-14-((8Z,11Z)-heptadeca-8,11-dien-1-yl)-4-(3-hydroxypropyl)-12,12-dimethyl-11,13,15-trioxa-4-aza-12-silatritriaconta-24,27-dien-1-ol]	100.6	110.1	116.5	106.3	54.4	14.9	−0.5	−1.4	102
CCCCC/C=C\C/C=C\CCCCCCCCOC(CCCCCCC/C=C\C/C=C\CCCCC)O[Si](C)(C)OCCCCCCN1CCCC1CO (stereo not shown) [Example 63, (1-((20Z,23Z)-10-((8Z,11Z)-heptadeca-8,11-dien-1-yl)-8,8-dimethyl-7,9,11-trioxa-8-silanonacosa-20,23-dien-1-yl)pyrrolidin-2-yl)methanol]	99.3	96.4	96.6	98.3	94.8	91.6	85.3	74.5	> 800
CCCCC/C=C\C/C=C\CCCCCCCCOC(CCCCCCC/C=C\C/C=C\CCCCC)O[Si](C)(C)OCCCCCCN1CCC(CO)CC1 (stereo not shown) [Example 65, (1-((20Z,23Z)-10-((8Z,11Z)-heptadeca-8,11-dien-1-yl)-8,8-dimethyl-7,9,11-trioxa-8-silanonacosa-20,23-dien-1-yl)piperidin-4-yl)methanol]									742
CCCCCCCCO[Si](C)(C)O[Si](C)(C)OC(CCCCCCC)OCCCCCCN(C)CCN(C)CCN(C)CCCCCCOC(CCCCCCC)O[Si](C)(C)O[Si](C)(C)OCCCCCCCC (stereo not shown) [Example 83, N^1-(11-heptyl-3,13,13,15,15-pentamethyl-10,12,14,16-tetraoxa-3-aza-13,15-disilatetracosyl)-N^1,N^2-dimethyl-N^2-(6-((1-((1,1,3,3-tetramethyl-3-(octyloxy)disiloxaneyl)oxy)octyl)oxy)hexyl)ethane-1,2-diamine]	100.51	98.95	100.30	101.93	83.41	41.91	2.25	−1.25	176
